Assay [1] has as its target Cathepsin S (Homo sapiens, UniProt P25774). The experiment in a line: Cathepsin S inhibition assay (fluorogenic peptide substrate). The class given is biochemical. The settings on record: Table II, compounds of Formula I; read-out: Ki Cat. S. In outline: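 Ki values come from nonlinear fitting of inhibited hydrolysis rates, taking free and total inhibitor concentrations as equal. Rates measured as rising fluorescence at 380/450 nm after reaction start with 50 μM final acetyl-HPVK-aminocarbamoylcoumarin.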

For assay [2], the target named is T1, Cathepsin K (Homo sapiens, UniProt P43235).
T1 sequence (P43235 115-329): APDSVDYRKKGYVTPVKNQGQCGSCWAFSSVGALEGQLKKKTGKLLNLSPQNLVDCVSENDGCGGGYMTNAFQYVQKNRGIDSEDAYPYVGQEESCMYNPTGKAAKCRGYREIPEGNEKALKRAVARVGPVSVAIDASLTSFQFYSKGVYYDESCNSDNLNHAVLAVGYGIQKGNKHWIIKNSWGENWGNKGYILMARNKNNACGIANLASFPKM
Kind of assay: Cathepsin K inhibition assay (fluorogenic peptide substrate); selectivity ratio vs cathepsin S. The settings on record: ratio of cathepsin K inhibition constant to cathepsin S inhibition constant; Table II. In kind it is biochemical. In outline: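 Inhibition constants for competitive inhibitors come from apparent values fitted to enzyme progress curves. Substrate, acetyl-Lys-His-Pro-Lys-aminocarbamoylcoumarin (40 μM final), starts the reaction; fluorescence rise read at 380 nm excitation, 450 nm emission. Selectivity ratio: other cathepsin constant over cathepsin S constant.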

Chain of Cathepsin S (P25774 115-331, species assumed): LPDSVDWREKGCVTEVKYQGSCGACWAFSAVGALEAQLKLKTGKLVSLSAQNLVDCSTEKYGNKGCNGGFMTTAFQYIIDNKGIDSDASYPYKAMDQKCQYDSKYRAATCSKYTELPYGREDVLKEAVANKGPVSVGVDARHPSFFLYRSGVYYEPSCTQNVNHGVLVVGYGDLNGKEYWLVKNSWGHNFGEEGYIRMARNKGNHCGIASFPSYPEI

Broadly, the Ki is the equilibrium dissociation constant of an inhibitor or competing ligand from its target. For `COc1ccc(NCCNC(=O)[C@H](Cc2ccc(-c3ccncc3)cc2)NC(=O)c2cccc(C)c2)cc1` [Compound 277, (S)-N-[1-[2-(4-Methoxy-phenylamino)-ethylcarbamoyl]-2-(4-pyridin-4-yl-phenyl)-ethyl]-3-methyl-benzamide], in assay [1], the Ki was less than 100 nM. Moreover, the “Selectivity for Cat. S over Cat. K” value in assay [2] is “++ (++, >100)”.
With `COc1ccc(NCCNC(=O)[C@H](Cc2ccc(-c3ccc(Cl)cc3)cc2)NC(=O)c2cccc(C)c2)cc1` [Compound 278, (S)-N-{2-(4′-Chloro-biphenyl-4-yl)-1-[2-(4-methoxy-phenylamino)-ethylcarbamoyl]-ethyl}-3-methyl-benzamide], the Ki in assay [1] was less than 1000 nM. Moreover, in assay [2], the “Selectivity for Cat. S over Cat. K” value is “++ (++, >100)”.
In the case of `COc1ccc(NCCNC(=O)[C@H](Cc2ccc(-c3cccc(OC)c3OC)cc2)NC(=O)c2cccc(C)c2)cc1` [Compound 279, (S)-N-{2-(2′,3′-Dimethoxy-biphenyl-4-yl)-1-[2-(4-methoxy-phenylamino)-ethylcarbamoyl]-ethyl}-3-methyl-benzamide], the Ki in assay [1] is less than 1000 nM. Further, in assay [2], the “Selectivity for Cat. S over Cat. K” value is “++ (++, >100)”.
For the compound `COc1ccc(NCCNC(=O)[C@H](Cc2ccc(-c3cccc(N)c3)cc2)NC(=O)c2cccc(C)c2)cc1` [Compound 280, (S)-N-{2-(3′-Amino-biphenyl-4-yl)-1-[2-(4-methoxy-phenylamino)-ethylcarbamoyl]-ethyl}-3-methyl-benzamide], the Ki in assay [1] was less than 1000 nM. Also, in assay [2], the “Selectivity for Cat. S over Cat. K” value was “++ (++, >100)”.
Consider `COc1ccc(NCCNC(=O)[C@H](Cc2ccc(-c3ccc(OC)c(OC)c3)cc2)NC(=O)c2cccc(C)c2)cc1` [Compound 281, (S)-N-{2-(3′,4′-Dimethoxy-biphenyl-4-yl)-1-[2-(4-methoxy-phenylamino)-ethylcarbamoyl]-ethyl}-3-methyl-benzamide], for which the Ki in assay [1] was less than 1000 nM. The “Selectivity for Cat. S over Cat. K” value in assay [2] was “++ (++, >100)”.
Regarding `COc1ccc(NCCNC(=O)[C@H](Cc2ccc(-c3ccc(CO)cc3)cc2)NC(=O)c2cccc(C)c2)cc1` [Compound 282, (S)-N-{2-(4′-Hydroxymethyl-biphenyl-4-yl)-1-[2-(4-methoxy-phenylamino)-ethylcarbamoyl]-ethyl}-3-methyl-benzamide], the Ki in assay [1] is less than 1000 nM. Further, in assay [2], the “Selectivity for Cat. S over Cat. K” value is “++ (++, >100)”.
On to `COc1ccc(NCCNC(=O)[C@H](Cc2ccc(-c3cc(F)ccc3OC)cc2)NC(=O)c2cccc(C)c2)cc1` [Compound 283, (S)-N-{2-(5′-Fluoro-2′-methoxy-biphenyl-4-yl)-1-[2-(4-methoxy-phenylamino)-ethylcarbamoyl]-ethyl}-3-methyl-benzamide], for which, in assay [1], the Ki was less than 1000 nM. Besides, the “Selectivity for Cat. S over Cat. K” value in assay [2] is “++ (++, >100)”.
For `COc1ccc(NCCNC(=O)[C@H](Cc2ccc(-c3cccc(CO)c3)cc2)NC(=O)c2cccc(C)c2)cc1` [Compound 284, (S)-N-{2-(3′-Hydroxymethyl-biphenyl-4-yl)-1-[2-(4-methoxy-phenylamino)-ethylcarbamoyl]-ethyl}-3-methyl-benzamide], the Ki in assay [1] is less than 1000 nM. Moreover, the “Selectivity for Cat. S over Cat. K” value in assay [2] is “++ (++, >100)”.
Take `COc1ccc(NCCNC(=O)[C@H](Cc2ccc(-c3cc(OC)ccc3OC)cc2)NC(=O)c2cccc(C)c2)cc1` [Compound 285, (S)-N-{2-(2′,5′-Dimethoxy-biphenyl-4-yl)-1-[2-(4-methoxy-phenylamino)-ethylcarbamoyl]-ethyl}-3-methyl-benzamide]: the Ki in assay [1] was less than 1000 nM. For the same compound, the “Selectivity for Cat. S over Cat. K” value in assay [2] was “++ (++, >100)”.
`COc1ccc(NCCNC(=O)[C@H](Cc2ccc(-c3cc(Cl)ccc3Cl)cc2)NC(=O)c2cccc(C)c2)cc1` [Compound 286, (S)-N-{2-(2′,5′-Dichloro-biphenyl-4-yl)-1-[2-(4-methoxy-phenylamino)-ethylcarbamoyl]-ethyl}-3-methyl-benzamide]: the Ki in assay [1] was less than 10000 nM. For the same compound, in assay [2], the “Selectivity for Cat. S over Cat. K” value is “+ (+, >10)”.
Consider `COc1ccc(NCCNC(=O)[C@H](Cc2ccc(-c3ccc(N(C)C)cc3)cc2)NC(=O)c2cccc(C)c2)cc1` [Compound 287, (S)-N-{2-(4′-Dimethylamino-biphenyl-4-yl)-1-[2-(4-methoxy-phenylamino)-ethylcarbamoyl]-ethyl}-3-methyl-benzamide], for which, in assay [1], the Ki is less than 1000 nM. Moreover, in assay [2], the “Selectivity for Cat. S over Cat. K” value is listed as “++ (++, >100)”.
Consider `COc1ccc(NCCNC(=O)[C@H](Cc2ccc(-c3ccccc3C(C)=O)cc2)NC(=O)c2cccc(C)c2)cc1` [Compound 288, (S)-N-{2-(2′-Acetyl-biphenyl-4-yl)-1-[2-(4-methoxy-phenylamino)-ethylcarbamoyl]-ethyl}-3-methyl-benzamide], for which, in assay [1], the Ki was less than 1000 nM. In addition, the “Selectivity for Cat. S over Cat. K” value in assay [2] is listed as “++ (++, >100)”.
For the compound `COc1ccc(NCCNC(=O)[C@H](Cc2ccc(-c3ccc(O)cc3)cc2)NC(=O)c2cccc(C)c2)cc1` [Compound 289, (S)-N-{2-(4′-Hydroxy-biphenyl-4-yl)-1-[2-(4-methoxy-phenylamino)-ethylcarbamoyl]-ethyl}-3-methyl-benzamide], in assay [1], the Ki is less than 1000 nM. Besides, the “Selectivity for Cat. S over Cat. K” value in assay [2] is “++ (++, >100)”.
`COc1ccc(NCCNC(=O)[C@H](Cc2ccc(-c3cccc(C(C)=O)c3)cc2)NC(=O)c2cccc(C)c2)cc1` [Compound 290, (S)-N-{2-(3′-Acetyl-biphenyl-4-yl)-1-[2-(4-methoxy-phenylamino)-ethylcarbamoyl]-ethyl}-3-methyl-benzamide]: the Ki in assay [1] was less than 100 nM. The “Selectivity for Cat. S over Cat. K” value in assay [2] is “+++ (+++, >1000)”.
Consider `COc1ccc(NCCNC(=O)[C@H](Cc2ccc(-c3cnc(OC)nc3OC)cc2)NC(=O)c2cccc(C)c2)cc1` [Compound 291, (S)-N-{2-[4-(2,4-Dimethoxy-pyrimidin-5-yl)-phenyl]-1-[2-(4-methoxy-phenylamino)-ethylcarbamoyl]-ethyl}-3-methyl-benzamide], for which the inhibitory constant (Ki) in assay [1] was less than 1000 nM. In assay [2], the “Selectivity for Cat. S over Cat. K” value is “++ (++, >100)”.
Turning to `COc1ccc(NCCNC(=O)[C@H](Cc2ccc(-c3ccc(OC)nc3)cc2)NC(=O)c2cccc(C)c2)cc1` [Compound 292, (S)-N-{1-[2-(4-Methoxy-phenylamino)-ethylcarbamoyl]-2-[4-(6-methoxy-pyridin-3-yl)-phenyl]-ethyl}-3-methyl-benzamide], the Ki in assay [1] was less than 100 nM. Further, in assay [2], the “Selectivity for Cat. S over Cat. K” value is on record as “+++ (+++, >1000)”.
For `CS(=O)(=O)c1ccc(C(=O)N[C@@H](CC2CCCCC2)C(=O)NCCNc2ccc(F)cc2)s1` [Compound 293, 5-Methanesulfonyl-thiophene-2-carboxylic acid (S)-{2-cyclohexyl-1-[2-(4-fluoro-phenylamino)-ethylcarbamoyl]-ethyl}-amide], the Ki in assay [1] is less than 100 nM. Also, the “Selectivity for Cat. S over Cat. K” value in assay [2] is reported as “++ (++, >100)”.
With `C[C@H](C(=O)N[C@@H](CC1CCCCC1)C(=O)NCCNc1ccc(F)cc1)c1ccccc1` [Compound 294, N-(S)-{2-cyclohexyl-1-[2-(4-fluoro-phenylamino)-ethylcarbamoyl]-ethyl}-2-(S)-phenyl-propionamide], the Ki in assay [1] is less than 100 nM. In addition, in assay [2], the “Selectivity for Cat. S over Cat. K” value is on record as “++ (++, >100)”.
Turning to `O=C(N[C@@H](CC1CCCCC1)C(=O)NCCNc1ccc(F)cc1)c1ccnnc1` [Compound 295, Pyridazine-4-carboxylic acid (S)-{2-cyclohexyl-1-[2-(4-fluoro-phenylamino)-ethylcarbamoyl]-ethyl}-amide], the Ki in assay [1] was less than 1000 nM. In addition, in assay [2], the “Selectivity for Cat. S over Cat. K” value is “++ (++, >100)”.

The record behind these values is patent US7109243B2 (IRM LLC, priority 2003, dated 2006).
